Data from ChEMBL document CHEMBL3507680, “University of Dundee, Gates Library screen for HepG2 cell viability”.

Assay: Human HepG2 cell viability assay in 384 well format
Format: toxicity, cell-based
Design: dose 125 nL, time 70.5 hour; concentration not given beside the values
Settings: HepG2 cells, read-out: Inhibition

| SMILES | cytotoxicity at 70.5 h [%] |
| --- | --- |
| O=C1CC(c2cccnc2)c2c(c(C(=O)O)cn2-c2ccc(Cl)cc2)N1 (configuration not stated) | -7.08 |
| CN1CCN(C(=O)c2cc3sccc3n2Cc2ccccc2F)CC1 | -9.9 |
| CC(C)[C@H](NC(=O)Cn1nc2c(cc1=O)CCCC2)C(=O)O | -4.44 |
| CCn1cc(-c2nn3c(C(F)(F)F)nnc3s2)cn1 | -16.2 |
| CN(C)CCCNC(=O)c1nc(Cc2c(Cl)cccc2Cl)no1 | 15.3 |
| O=C(Nc1ccccn1)c1csc(NC2CCCC2)n1 | 1.59 |
| Cc1nn(C)cc1C1CC(=O)Nc2c1cnn2C (configuration not stated) | -5.3 |
| Cc1nc(NC(=O)CN2C(=O)c3ccccc3NC2C(C)C)sc1C (configuration not stated) | -11.4 |
| CC1CCc2[nH]c(=O)c(C(=O)N3CCc4ccccc4C3)cc2C1 (configuration not stated) | 0.747 |
| COC(=O)[C@H](C)NC(=O)CSCc1nc2sc(C(C)C)cc2c(=O)[nH]1 | -9.3 |
| Cc1c(CC(C#N)C(=O)Nc2cccc(O)c2)cnn1C (configuration not stated) | -12.8 |
| C[C@@H](O)CNc1c(NCc2ccco2)c(=O)c1=O | -12.9 |
| O=c1c(NCCNCCO)c(N2CCN(Cc3ccccc3)CC2)c1=O | -3.52 |
| CC(C)CNC(=O)CNC(=O)c1nc(Cc2c(Cl)cccc2Cl)no1 | -9.72 |
| O=c1c(NCCCO)c(N2CCN(c3ccccc3)CC2)c1=O | -2.43 |
| CCOC(=O)c1sc(NC(=O)c2cc(=O)c(OC)c[nH]2)nc1C | -8.8 |
| O=c1c(NCCc2ccc(O)cc2)c(NCc2ccccn2)c1=O | 6.43 |
| CC(C)C(=O)Nc1ccc2c(c1)ncn2CC(=O)NCCN(C)C | -7 |
| O=C1CC(c2cccnc2)c2c(c(C(=O)O)cn2-c2ccccc2F)N1 (configuration not stated) | -13.2 |
| Cc1nn(C)cc1CC(C#N)C(=O)Nc1cccc(O)c1 (configuration not stated) | -12.6 |
| CN(Cc1ccccc1)C(=O)Cn1nc(N2CCOCC2)ccc1=O | 9.2 |
| COc1c[nH]c(C(=O)N2CCN(c3ccccc3)CC2)cc1=O | -11.3 |
| COc1ccccc1CNc1c(N2CCN(C(C)=O)CC2)c(=O)c1=O | -10.2 |
| O=C(NC1CC1)c1cccc(Oc2ccc3nncn3n2)c1 | -4.61 |

| SMILES | cytotoxicity at 70.5 h [%] |
| --- | --- |
| COc1ccc(-c2csc3c2c(N)nc(=O)n3CCN(C)C)cc1 | -7.62 |
| Cc1cc(N2CCCC2)nc(N(C)CCO)c1C#N | -9.55 |
| COc1ccc(-c2csc3c2c(N)nc(=O)n3CCCN(C)C)cc1 | -8.54 |
| CC(C)n1c(=O)c2ccccc2n(CCN2CCCCC2)c1=O | -12.6 |
| CN1CCCN(CC(CC(=O)Nc2ccc(Cl)cc2)C(=O)O)CC1 (configuration not stated) | -6.04 |
| COCCNC(=O)Cn1cc(OCc2ccccc2)c(=O)cc1CO | -15.3 |
| Cc1ccc(C(=O)Nc2nnc(C(C)C)s2)c(-n2cnnn2)c1C | -5.81 |
| NC(=O)c1ccccc1NC(=O)CCN1CCN(c2ccccc2)CC1 | -9.88 |
| COc1ccc2nnc(CCC(=O)Nc3nc(C)c(C)s3)n2n1 | -9.75 |
| Cc1nn2cnnc2c(C)c1CCC(=O)Nc1nnc(C(C)C)s1 | 12.1 |
| Cn1cc(NC(=O)CNC(=O)N2CCN(c3ccc(F)cc3)CC2)cn1 | -2.76 |
| CC1=Nc2c(c(=O)[nH]n2C(C)C)C(c2ccc3ncccc3c2)S1 (configuration not stated) | 0.555 |
| CN(C)S(=O)(=O)c1ccc(-c2nc(C#N)c(NC3CC3)o2)o1 | -4.74 |
| O=C(CCc1ccc(-n2cnnn2)cc1)Nc1ccncc1 | -7.21 |
| Cn1cc(NC(=O)CNC(=O)N2CCN(c3ccc(Cl)cc3)CC2)cn1 | -5.62 |
| CC(C)OCC(=O)Nc1ccc(Oc2ccc3c(c2)OCO3)nc1 | -5.21 |
| COc1coc(C(=O)Nc2nc(-c3ccncc3)cs2)cc1=O | -11.9 |
| COc1ccc(NC(=O)c2nc(C)sc2C(C)C)cn1 | -9.52 |
| O=C(CCc1nc2cccnc2[nH]1)Nc1ccc2c(c1)NC(=O)CO2 | 8.55 |
| O=C(Nc1cccnc1-n1cc(Cl)cn1)C1CCCC1 | -29.5 |
| COc1ccc2nnc(CCCC(=O)NCc3ccccc3)n2n1 | -13.2 |
| O=C1CC(c2ccc(C(=O)O)cc2)c2cnn(Cc3ccco3)c2N1 (configuration not stated) | -25.8 |
| Cc1nn2c(-c3cnn(C)c3)nnc2s1 | -7.18 |
| CC(C)(C)C1CC(=O)Nc2c1cnn2Cc1ccco1 (configuration not stated) | -17.9 |

| SMILES | cytotoxicity at 70.5 h [%] |
| --- | --- |
| O=C1CCC(c2ccc(Cl)cc2)=NN1CN1CCCCCC1 | -4.16 |
| COc1coc(C(=O)Nc2nc(-c3cccnc3)cs2)cc1=O | -13.5 |
| C[C@H](NC(=O)N1CCN(c2ccc(Cl)cc2)CC1)C(=O)N1CCSCC1 | -14.7 |
| COc1ccc2nnc(CCC(=O)Nc3nc4c(s3)CCCCC4)n2n1 | -17.3 |
| Cc1cc(O)cc(=O)n1CCCC(=O)Nc1n[nH]c2ccccc12 | -11.5 |
| Cn1cc(-c2nnc3sc(C4CCC4)nn23)cn1 | -12.3 |
| Cc1ccc(S(=O)(=O)c2ncccc2CN2CCCC2)cc1 | -22.8 |
| Cn1ccc2c(C(=O)NC3CN4CCC3CC4)cccc21 (configuration not stated) | -32.2 |
| CCOc1cc(C(=O)N2CCCC(c3noc(C)n3)C2)ccc1OC (configuration not stated) | -4.06 |
| CCNc1cc2c(nn1)CCN(C(=O)CCc1c(C)noc1Cl)C2 | -4.23 |
| CCNc1cc2c(nn1)CCN(C(=O)Cc1c(C)nn(C)c1C)C2 | -2.18 |
| Cc1cccc(C)c1OCCNC(=O)CN1CCN(C)CC1C (configuration not stated) | 16.7 |
| CCOc1ncccc1NC(=O)N1CCN(CC(=O)NC)CC1 | -8.56 |
| Fc1cc(CN2CCCC2Cn2cncn2)c2ncccc2c1 (configuration not stated) | 4.94 |
| CCOc1ncccc1NC(=O)N1CCN(Cc2ccncc2)CC1 | -4.21 |
| Cc1ccc(C(C)N(C)Cc2nc3c(cnn3C)c(=O)[nH]2)c(C)c1 (configuration not stated) | -4.81 |
| CN(CCCc1cc(-c2ccccc2)no1)S(C)(=O)=O | 8.59 |
| COc1ccccc1C(C)N(C)Cc1nc2c(cnn2C)c(=O)[nH]1 (configuration not stated) | -8.94 |
| O=C1NCCN1C1CCN(CCOc2ccccc2Cl)CC1 | 0.552 |
| Cn1ccnc1CN1CCN(Cc2ccc(C#N)cc2F)CC1 | -1.66 |
| Cn1ccnc1CN1CCN(Cc2ccc(C#N)cc2)CC1 | -2.96 |
| CC1CN(Cc2ccc(C#N)cc2F)CCN1Cc1nccn1C (configuration not stated) | -5.45 |
| COc1ccccc1OCCNC(=O)CN1CCN(C)CC1C (configuration not stated) | -2.58 |
| CC1CN(C)CCN1CC(=O)NCCOc1ccc2c(c1)OCO2 (configuration not stated) | 9.64 |

| SMILES | cytotoxicity at 70.5 h [%] |
| --- | --- |
| CCc1ccc(S(=O)(=O)Nc2cc(C(=O)O)ccc2F)s1 | -3.74 |
| O=C1NCCN1C1CCN(CCOc2cccc3ccccc23)CC1 | 0.611 |
| CN1CCOC(CNCc2ccccc2OCc2ccccn2)C1 (configuration not stated) | -9.16 |
| CNc1nc(CNC(=O)Nc2cccc(CN(C)C)c2)cs1 | 0.614 |
| Cc1ccc(CC(=O)N2CCCC(c3cc(C(N)=O)[nH]n3)C2)cn1 (configuration not stated) | -2.37 |
| CNc1nc(CNC(=O)Nc2cccc(CC(F)(F)F)c2)cs1 | -4.82 |
| O=C(CN1CCOC(Cn2cncn2)C1)NCc1cccs1 (configuration not stated) | 29.2 |
| Cc1ccc(C2CCCN2S(=O)(=O)N(C)CCc2ccccn2)o1 (configuration not stated) | 4.42 |
| CSc1ccc(CN(C)C(=O)c2cc3c([nH]c2=O)CCCC3=O)cc1 | -2.82 |
| Cc1noc(C)c1C(=O)NCCSCc1cccs1 | 0.282 |
| CS(=O)(=O)NC1CCN(C(=O)NCCc2ccccn2)CC1 | 13.9 |
| CS(=O)(=O)NC1CCN(C(=O)NCc2ccccn2)CC1 | -2.65 |
| CCc1nc(CN2CCN(C(=O)c3cncnc3CC)CC2)cs1 | -3.73 |
| COCCCNC(=O)CN(C)C(=O)c1ccc(OC)cc1O | -5.57 |
| Cc1cc(C)n(CC2CN(CC(=O)NCc3cccs3)CCO2)n1 (configuration not stated) | 13.4 |
| COCCNC(=O)CN1CCN(c2nc(C)cs2)CC1 | -3.26 |
| O=C(CN1CCOC(Cn2cccn2)C1)NCc1ccco1 (configuration not stated) | -2.4 |
| O=C(CN1CCOC(Cn2cccn2)C1)NCCc1cccs1 (configuration not stated) | -4.13 |
| Cc1csc(N2CCN(CC(=O)NC3CCOCC3)CC2C)n1 (configuration not stated) | -1.39 |
| Cc1nn(C)c(C)c1C1CCCN1C(=O)c1ccc2nnc(C)n2c1 (configuration not stated) | -2.36 |
| CC(C)N(Cc1ccccn1)S(=O)(=O)N1CCCC1c1ccco1 (configuration not stated) | 3.04 |
| N#CCCN(C(=O)CN1CCCC1c1cccs1)c1ccccc1F (configuration not stated) | 1.76 |
| CCc1ccc(C(=O)N2CCCCC2Cn2cccn2)o1 (configuration not stated) | 6.61 |
| Cc1cnn(CCNCc2ccccc2F)c1 | 0.747 |

| SMILES | cytotoxicity at 70.5 h [%] |
| --- | --- |
| Cc1ccc(OCCN2CCN(Cc3cnn(CCO)c3)CC2)cc1 | -0.0785 |
| CN(Cc1cnn(C)c1)C(=O)NCc1cc(Br)cs1 | -2.54 |
| Cc1ncsc1C(=O)NCCc1cccs1 | 2.38 |
| N#CCCN(C(=O)CN1CCCC1c1ccsc1)c1ccccc1 (configuration not stated) | 20.9 |
| Cc1cncc(C(=O)NCCSCc2cccs2)c1 | -3.14 |
| CCc1nnc2n1CCN(Cc1cccc3c1OCCO3)C2 | 21.6 |
| c1ccc(-c2nnc3n2CCN(Cc2ccc4c(c2)OCCO4)C3)cc1 | 26.9 |
| c1ccc2oc(CN3CCCC3c3noc(C4CC4)n3)nc2c1 (configuration not stated) | -11.3 |
| CCOc1ncccc1CNc1nnc(C)c(C)c1C#N | -0.879 |
| Cc1nnc(NCc2ccccc2F)c(C#N)c1C | -5.23 |
| Cc1nnc(NCc2ccccc2S(=O)(=O)N(C)C)c(C#N)c1C | 0.114 |
| COc1cccc(C(NCc2ccc(SC)cc2)c2nccn2C)c1 (configuration not stated) | 3.42 |
| COc1ccccc1C(NCc1ccc(SC)cc1)c1nccn1C (configuration not stated) | 11.2 |
| O=C(NCCn1nc2ccccn2c1=O)c1scnc1Cl | -2.79 |
| Cn1ccnc1C(NCc1ccccc1)c1ccc(F)cc1 (configuration not stated) | -2.68 |
| Cc1ncncc1C(=O)NCCn1nc2ccccn2c1=O | -3.41 |
| Cc1nnc(NCc2cccnc2OCC(F)(F)F)c(C#N)c1C | -0.691 |
| Cc1nc(C)c(C(=O)NCCn2nc3ccccn3c2=O)s1 | -1.89 |
| CCc1nnc2n1CCN(Cc1cc(Cl)c3c(c1)OCCCO3)C2 | 0.524 |
| CN(C)S(=O)(=O)c1ccc(-c2nc(C#N)c(NC(C)(C)C)o2)o1 | -8.34 |
| CSc1ccc(CNC(c2ccccc2F)c2nccn2C)cc1 (configuration not stated) | 0.516 |
